Reference: ChEMBL document CHEMBL3044576, “Synthesis of promising antimicrobial agents: a novel series of N-(4-(2,6-dichloroquinolin-3-yl)-6-(aryl)pyrimidin-2-yl)-2-morpholinoacetamides” (2013)
≈ marks a conversion by molar mass, not a printed value.

What was measured:
Format in all cases: functional
[1] = tested on: Aspergillus clavatus; assay: Antifungal activity against Aspergillus clavatus MTCC 1323 after 72 hr by serial broth dilution method; conditions: MTCC 1323, 72 h
[2] = tested on: Aspergillus niger; assay: Antifungal activity against Aspergillus niger MTCC 282 after 72 hr by serial broth dilution method; conditions: MTCC 282, 72 h
[3] = tested on: Candida albicans; assay: Antifungal activity against Candida albicans MTCC 227 after 72 hr by serial broth dilution method; conditions: MTCC 227, 72 h
[4] = tested on: Streptococcus pyogenes; assay: Antibacterial activity against Streptococcus pyogenes MTCC 442 after 24 to 48 hr by serial broth dilution method
[5] = tested on: Staphylococcus aureus; assay: Antibacterial activity against Staphylococcus aureus MTCC 96 after 24 to 48 hr by serial broth dilution method
[6] = tested on: Pseudomonas aeruginosa; assay: Antibacterial activity against Pseudomonas aeruginosa MTCC 1688 after 24 to 48 hr by serial broth dilution method
[7] = tested on: Escherichia coli; assay: Antibacterial activity against Escherichia coli MTCC 443 after 24 to 48 hr by serial broth dilution method

MIC [1] [µg/mL]	MIC [2] [µg/mL]	MIC [3] [µg/mL]	MIC [4] [µg/mL]	MIC [5] [µg/mL]	MIC [6] [µg/mL]	MIC [7] [µg/mL]	Structure (SMILES)
25 (≈ 47.3 µM)	100 (≈ 189 µM)	500 (≈ 945 µM)	100 (≈ 189 µM)	250 (≈ 473 µM)	250 (≈ 473 µM)	50 (≈ 94.5 µM)	O=C(CN1CCOCC1)Nc1nc(-c2ccccc2Cl)cc(-c2cc3cc(Cl)ccc3nc2Cl)n1
500 (≈ 980 µM)	500 (≈ 980 µM)	1000 (≈ 1960 µM)	500 (≈ 980 µM)	500 (≈ 980 µM)	250 (≈ 490 µM)	500 (≈ 980 µM)	O=C(CN1CCOCC1)Nc1nc(-c2ccccc2O)cc(-c2cc3cc(Cl)ccc3nc2Cl)n1
50 (≈ 92.7 µM)	25 (≈ 46.3 µM)	100 (≈ 185 µM)	12.5 (≈ 23.2 µM)	500 (≈ 927 µM)	50 (≈ 92.7 µM)	12.5 (≈ 23.2 µM)	O=C(CN1CCOCC1)Nc1nc(-c2ccccc2[N+](=O)[O-])cc(-c2cc3cc(Cl)ccc3nc2Cl)n1
100 (≈ 185 µM)	50 (≈ 92.7 µM)	500 (≈ 927 µM)	100 (≈ 185 µM)	50 (≈ 92.7 µM)	100 (≈ 185 µM)	100 (≈ 185 µM)	O=C(CN1CCOCC1)Nc1nc(-c2cccc([N+](=O)[O-])c2)cc(-c2cc3cc(Cl)ccc3nc2Cl)n1
100 (≈ 189 µM)	100 (≈ 189 µM)	100 (≈ 189 µM)	50 (≈ 94.5 µM)	250 (≈ 473 µM)	25 (≈ 47.3 µM)	100 (≈ 189 µM)	O=C(CN1CCOCC1)Nc1nc(-c2ccc(Cl)cc2)cc(-c2cc3cc(Cl)ccc3nc2Cl)n1
100 (≈ 283 µM)	100 (≈ 283 µM)	500 (≈ 1420 µM)	–	–	–	–	COC1=CC(=O)C[C@@H](C)[C@]12Oc1c(Cl)c(OC)cc(OC)c1C2=O [GRISEOFULVIN]
12.5 (≈ 24.4 µM)	1000 (≈ 1950 µM)	500 (≈ 976 µM)	100 (≈ 195 µM)	500 (≈ 976 µM)	250 (≈ 488 µM)	25 (≈ 48.8 µM)	O=C(CN1CCOCC1)Nc1nc(-c2ccc(F)cc2)cc(-c2cc3cc(Cl)ccc3nc2Cl)n1
50 (≈ 97.6 µM)	25 (≈ 48.8 µM)	250 (≈ 488 µM)	100 (≈ 195 µM)	50 (≈ 97.6 µM)	50 (≈ 97.6 µM)	50 (≈ 97.6 µM)	O=C(CN1CCOCC1)Nc1nc(-c2ccccc2F)cc(-c2cc3cc(Cl)ccc3nc2Cl)n1
1000 (≈ 1960 µM)	1000 (≈ 1960 µM)	1000 (≈ 1960 µM)	1000 (≈ 1960 µM)	500 (≈ 980 µM)	1000 (≈ 1960 µM)	500 (≈ 980 µM)	O=C(CN1CCOCC1)Nc1nc(-c2ccc(O)cc2)cc(-c2cc3cc(Cl)ccc3nc2Cl)n1
25 (≈ 46.3 µM)	100 (≈ 185 µM)	250 (≈ 463 µM)	250 (≈ 463 µM)	100 (≈ 185 µM)	250 (≈ 463 µM)	250 (≈ 463 µM)	O=C(CN1CCOCC1)Nc1nc(-c2ccc([N+](=O)[O-])cc2)cc(-c2cc3cc(Cl)ccc3nc2Cl)n1
100 (≈ 195 µM)	100 (≈ 195 µM)	1000 (≈ 1950 µM)	500 (≈ 976 µM)	250 (≈ 488 µM)	100 (≈ 195 µM)	100 (≈ 195 µM)	O=C(CN1CCOCC1)Nc1nc(-c2cccc(F)c2)cc(-c2cc3cc(Cl)ccc3nc2Cl)n1
500 (≈ 953 µM)	500 (≈ 953 µM)	1000 (≈ 1910 µM)	500 (≈ 953 µM)	500 (≈ 953 µM)	250 (≈ 477 µM)	250 (≈ 477 µM)	COc1ccc(-c2cc(-c3cc4cc(Cl)ccc4nc3Cl)nc(NC(=O)CN3CCOCC3)n2)cc1
1000 (≈ 2020 µM)	1000 (≈ 2020 µM)	1000 (≈ 2020 µM)	1000 (≈ 2020 µM)	1000 (≈ 2020 µM)	250 (≈ 506 µM)	500 (≈ 1010 µM)	O=C(CN1CCOCC1)Nc1nc(-c2ccccc2)cc(-c2cc3cc(Cl)ccc3nc2Cl)n1

Structure (SMILES)	MIC [1] [µg/mL]	MIC [2] [µg/mL]	MIC [3] [µg/mL]	MIC [4] [µg/mL]	MIC [5] [µg/mL]	MIC [6] [µg/mL]	MIC [7] [µg/mL]
CC1(C)S[C@@H]2[C@H](NC(=O)[C@H](N)c3ccccc3)C(=O)N2[C@H]1C(=O)O [AMPICILLIN]	–	–	–	100 (≈ 286 µM)	250 (≈ 715 µM)	100 (≈ 286 µM)	100 (≈ 286 µM)
